Data taken from publication PMC8915830 (Proceedings of the National Academy of Sciences of the …, 2022).

Assays:
[1] = target: T1, hGHSR1aWT (Homo sapiens, UniProt Q92847); test: iCa2+ in WT or Gαq/11 KO HEK293/S cells; format: cell-based; details: 10 μM ligand; versus WT cells
[2] = target: T1, hGHSR1aWT; test: Gαq/11-dependent intracellular Ca2+ mobilization; format: cell-based; details: for activity of the pure/resynthesized molecule: screening aliquots contained oxidated impurities

T1 sequence (Q92847 whole entry): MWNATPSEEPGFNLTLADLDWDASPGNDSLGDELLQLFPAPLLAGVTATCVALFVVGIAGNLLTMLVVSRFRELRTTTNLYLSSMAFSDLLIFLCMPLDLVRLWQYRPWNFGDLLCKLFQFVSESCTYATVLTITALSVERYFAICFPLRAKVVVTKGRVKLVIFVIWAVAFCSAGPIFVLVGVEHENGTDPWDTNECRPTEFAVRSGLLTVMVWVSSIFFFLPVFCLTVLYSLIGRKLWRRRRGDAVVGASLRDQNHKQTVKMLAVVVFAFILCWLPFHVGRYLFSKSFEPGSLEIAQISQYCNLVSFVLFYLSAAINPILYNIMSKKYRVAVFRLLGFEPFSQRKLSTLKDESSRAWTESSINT

activity of the pure/resynthesized molecule [2]	SMILES	other results
–	C[C@@H](O)CNC(C)(C)CC(=O)N[C@@H]1CCc2ccccc2N(Cc2ccc(-c3ccccc3-c3nn[nH]n3)cc2)C1=O [L585]	ligand-induced iCa2+ in Gαq/11 KO cells [1]: abolished
could not be confirmed	CCOc1ccc(C2c3c(oc4ccc(C)cc4c3=O)C(=O)N2CCCN(C)C)cc1OC (stereo not shown) [N1956]	–
could not be confirmed	COc1ccc(C2c3c(oc4ccc(Cl)cc4c3=O)C(=O)N2CCCN(C)C)cc1OC (stereo not shown) [N6164]	–
–	Cc1nc2ccc(Oc3ccc(F)cc3)cc2c(=O)n1C[C@H]1CCCN(C(C)C)C1 [YIL781]	inhibition of iCa2+ evoked by EC80 N8279, ghrelin or L585 ([2]; 30 min antagonist pretreatment): competitively inhibited
